{"source": "patent US20150105252A1", "about": "“SUBSTITUTED PYRAZOLES AS HERBICIDES” (E I DU PONT DE NEMOURS AND COMPANY, priority 2013, published 2015)", "conditions_in_all_cases": "scale 0 to 100", "key": {"pigweed, palmer": {"system": "pigweed, palmer", "test": "Test F postemergence", "type": "in vivo, Amaranthus palmeri", "text": "(§1) Seeds of plant species selected from corn (Zea mays), soybean (Glycine max), velvetleaf (Abutilon theophrasti), lambsquarters (Chenopodium album), wild poinsettia (Euphorbia heterophylla), pigweed, palmer (palmer pigweed, Amaranthus palmeri), common waterhemp (Amaranthus rudis), surinam grass (Brachiaria decumbens), large crabgrass (Digitaria sanguinalis), crabgrass, Brazil (Brazilian crabgrass, Digitaria horizontalis), fall panicum (Panicum dichotomiflorum), giant foxtail (Setaria faberii), green foxtail (Setaria viridis), goosegrass (Eleusine indica), johnsongrass (Sorghum halepense), common ragweed (Ambrosia elation), barnyardgrass (Echinochloa crus-galli), southern sandbur (Cenchrus echinatus), arrowleaf sida (Sida rhombifolia), Italian ryegrass (Lolium multiflorum), dayflower, VA (Virginia (VA) dayflower, Commelina virginica), field bindweed (Convolvulus arvensis), cocklebur (common cocklebur, Xanthium strumarium), morningglory (Ipomoea coccinea), nightshade (eastern black nightshade, Solanum ptycanthum), kochia (Kochia scoparia), yellow nutsedge (Cyperus esculentus), and hairy beggarticks (Bidens pilosa), were planted into a silt loam soil and treated preemergence with test chemicals formulated in a non-phytotoxic solvent mixture which included a surfactant.\n(§2) At the same time, plants from these crop and weed species and also horseweed (Canada horseweed, Conyza canadensis), smartweed (ladysthumb smartweed, Polygonum persicaria), waterhemp_RES1, (ALS & Triazine resistant common waterhemp, Amaranthus rudis), and waterhemp_RES2, (ALS & HPPD resistant common waterhemp, Amaranthus rudis) were treated with postemergence applications of test chemicals formulated in the same manner. Plants ranged in height from 2 to 18 cm for postemergence treatments (1- to 4-leaf stage). Treated plants and controls were maintained in a greenhouse for 14 to 21 days, after which time all species were compared to controls and visually evaluated. Plant response ratings, summarized in Table F, are based on a scale of 0 to 100 where 0 is no effect and 100 is complete control. A dash (-) response means no test result."}, "fall panicum": {"system": "fall panicum", "test": "Test F postemergence", "type": "in vivo, Panicum dichotomiflorum", "text": "as §1, §2"}, "southern sandbur": {"system": "southern sandbur", "test": "Test F postemergence", "type": "in vivo, Cenchrus echinatus", "text": "as §1, §2"}, "Italian ryegrass": {"system": "Italian ryegrass", "test": "Test F postemergence", "type": "in vivo, Lolium multiflorum", "text": "as §1, §2"}, "dayflower, VA": {"system": "dayflower, VA", "test": "Test F postemergence", "type": "in vivo, Commelina virginica", "text": "as §1, §2"}, "hairy beggarticks": {"system": "hairy beggarticks", "test": "Test F postemergence", "type": "in vivo, Bidens pilosa", "text": "as §1, §2"}, "[1]": {"system": "waterhemp_RES1 (ALS & Triazine resistant common waterhemp)", "test": "Test F postemergence", "type": "in vivo, Amaranthus rudis", "how_it_was_run": "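Planting in silt loam, then preemergence treatment; postemergence treatment in parallel on 1- to 4-leaf seedlings (2–18 cm). Compound carried in a non-phytotoxic solvent mixture with surfactant. Greenhouse, 14–21 days; visual comparison with controls, scored 0 (none) to 100 (full control).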"}, "cocklebur": {"system": "cocklebur", "test": "Test F preemergence", "type": "in vivo, Xanthium strumarium", "text": "as §1, with “surfactant. […]” for “surfactant.”"}}, "note": "Several values for one entry are separate records, joined by “and”; a condition that tells them apart may be missing. Identical values can stand only once.", "data": [{"smiles": "CCCNC(=O)c1cc(CC)n(Cc2nc(C(F)(F)F)nn2C)n1", "note": "[Compound 109]", "values": [{"measurement": "Plant response rating, Pigweed, Palmer", "setting": "pigweed, palmer; Postemergence, 16 g ai/ha", "value": 30}, {"measurement": "Plant response rating, Pigweed, Palmer", "setting": "pigweed, palmer; Postemergence, 31 g ai/ha", "value": 50}, {"measurement": "Plant response rating, Pigweed, Palmer", "setting": "pigweed, palmer; Postemergence, 125 g ai/ha", "value": 60}, {"measurement": "Plant response rating, Pigweed, Palmer", "setting": "pigweed, palmer; Postemergence, 250 g ai/ha", "value": 70}, {"measurement": "Plant response rating, Fall Panicum", "setting": "fall panicum; Postemergence, 16 g ai/ha", "value": 10}, {"measurement": "Plant response rating, Fall Panicum", "setting": "fall panicum; Postemergence, 31 g ai/ha", "value": 10}, {"measurement": "Plant response rating, Fall Panicum", "setting": "fall panicum; Postemergence, 125 g ai/ha", "value": 20}, {"measurement": "Plant response rating, Fall Panicum", "setting": "fall panicum; Postemergence, 250 g ai/ha", "value": 30}, {"measurement": "Plant response rating, Southern Sandbur", "setting": "southern sandbur; Postemergence, 16 g ai/ha", "value": 0}, {"measurement": "Plant response rating, Southern Sandbur", "setting": "southern sandbur; Postemergence, 31 g ai/ha", "value": 0}, {"measurement": "Plant response rating, Southern Sandbur", "setting": "southern sandbur; Postemergence, 125 g ai/ha", "value": 10}, {"measurement": "Plant response rating, Southern Sandbur", "setting": "southern sandbur; Postemergence, 250 g ai/ha", "value": 20}, {"measurement": "Plant response rating, Italian Ryegrass", "setting": "Italian ryegrass; Postemergence, 16 g ai/ha", "value": 0}, {"measurement": "Plant response rating, Italian Ryegrass", "setting": "Italian ryegrass; Postemergence, 31 g ai/ha", "value": 0}, {"measurement": "Plant response rating, Italian Ryegrass", "setting": "Italian ryegrass; Postemergence, 125 g ai/ha", "value": 15}, {"measurement": "Plant response rating, Italian Ryegrass", "setting": "Italian ryegrass; Postemergence, 250 g ai/ha", "value": 30}, {"measurement": "Plant response rating, Dayflower, VA", "setting": "dayflower, VA; Postemergence, 16 g ai/ha", "value": 15}, {"measurement": "Plant response rating, Dayflower, VA", "setting": "dayflower, VA; Postemergence, 31 g ai/ha", "value": 20}, {"measurement": "Plant response rating, Dayflower, VA", "setting": "dayflower, VA; Postemergence, 125 g ai/ha", "value": 40}, {"measurement": "Plant response rating, Dayflower, VA", "setting": "dayflower, VA; Postemergence, 250 g ai/ha", "value": 70}, {"measurement": "Plant response rating, Hairy Beggarticks", "setting": "hairy beggarticks; Postemergence, 16 g ai/ha", "value": 35}, {"measurement": "Plant response rating, Hairy Beggarticks", "setting": "hairy beggarticks; Postemergence, 31 g ai/ha", "value": 45}, {"measurement": "Plant response rating, Hairy Beggarticks", "setting": "hairy beggarticks; Postemergence, 125 g ai/ha", "value": 50}, {"measurement": "Plant response rating, Hairy Beggarticks", "setting": "hairy beggarticks; Postemergence, 250 g ai/ha", "value": 60}]}, {"smiles": "CCc1cc(-c2ccc(C(F)(F)F)cc2)nn1Cc1ccnc(C(F)(F)F)c1", "note": "[Compound 110]", "values": [{"measurement": "Plant response rating, Pigweed, Palmer", "setting": "pigweed, palmer; Postemergence, 16 g ai/ha", "value": 85}, {"measurement": "Plant response rating, Pigweed, Palmer", "setting": "pigweed, palmer; Postemergence, 31 g ai/ha", "value": 90}, {"measurement": "Plant response rating, Pigweed, Palmer", "setting": "pigweed, palmer; Postemergence, 125 g ai/ha", "value": 85}, {"measurement": "Plant response rating, Pigweed, Palmer", "setting": "pigweed, palmer; postemergence, 62 g ai/ha", "value": "50 and 85"}, {"measurement": "Plant response rating, Pigweed, Palmer", "setting": "pigweed, palmer; postemergence, 8 g ai/ha", "value": 60}, {"measurement": "Plant response rating, Fall Panicum", "setting": "fall panicum; Postemergence, 16 g ai/ha", "value": 10}, {"measurement": "Plant response rating, Fall Panicum", "setting": "fall panicum; Postemergence, 31 g ai/ha", "value": 20}, {"measurement": "Plant response rating, Fall Panicum", "setting": "fall panicum; Postemergence, 125 g ai/ha", "value": 30}, {"measurement": "Plant response rating, Fall Panicum", "setting": "fall panicum; postemergence, 62 g ai/ha", "value": 20}, {"measurement": "Plant response rating, Fall Panicum", "setting": "fall panicum; postemergence, 8 g ai/ha", "value": 10}, {"measurement": "Plant response rating, Southern Sandbur", "setting": "southern sandbur; Postemergence, 16 g ai/ha", "value": 20}, {"measurement": "Plant response rating, Southern Sandbur", "setting": "southern sandbur; Postemergence, 31 g ai/ha", "value": 25}, {"measurement": "Plant response rating, Southern Sandbur", "setting": "southern sandbur; Postemergence, 125 g ai/ha", "value": 30}, {"measurement": "Plant response rating, Southern Sandbur", "setting": "southern sandbur; postemergence, 8 g ai/ha", "value": 20}, {"measurement": "Plant response rating, Italian Ryegrass", "setting": "Italian ryegrass; Postemergence, 16 g ai/ha", "value": 20}, {"measurement": "Plant response rating, Italian Ryegrass", "setting": "Italian ryegrass; Postemergence, 31 g ai/ha", "value": 20}, {"measurement": "Plant response rating, Italian Ryegrass", "setting": "Italian ryegrass; Postemergence, 125 g ai/ha", "value": 30}, {"measurement": "Plant response rating, Italian Ryegrass", "setting": "Italian ryegrass; postemergence, 8 g ai/ha", "value": 10}, {"measurement": "Plant response rating, Dayflower, VA", "setting": "dayflower, VA; Postemergence, 16 g ai/ha", "value": 50}, {"measurement": "Plant response rating, Dayflower, VA", "setting": "dayflower, VA; Postemergence, 31 g ai/ha", "value": 40}, {"measurement": "Plant response rating, Dayflower, VA", "setting": "dayflower, VA; Postemergence, 125 g ai/ha", "value": 60}, {"measurement": "Plant response rating, Dayflower, VA", "setting": "dayflower, VA; postemergence, 62 g ai/ha", "value": "30 and 60"}, {"measurement": "Plant response rating, Dayflower, VA", "setting": "dayflower, VA; postemergence, 8 g ai/ha", "value": 25}, {"measurement": "Plant response rating, Hairy Beggarticks", "setting": "hairy beggarticks; Postemergence, 16 g ai/ha", "value": 50}, {"measurement": "Plant response rating, Hairy Beggarticks", "setting": "hairy beggarticks; Postemergence, 31 g ai/ha", "value": 60}, {"measurement": "Plant response rating, Hairy Beggarticks", "setting": "hairy beggarticks; Postemergence, 125 g ai/ha", "value": 70}, {"measurement": "Plant response rating, Hairy Beggarticks", "setting": "hairy beggarticks; postemergence, 62 g ai/ha", "value": "50 and 60"}, {"measurement": "Plant response rating, Hairy Beggarticks", "setting": "hairy beggarticks; postemergence, 8 g ai/ha", "value": 30}, {"measurement": "Plant response rating, Waterhemp_RES1", "setting": "[1]; Postemergence, 16 g ai/ha", "value": 90}, {"measurement": "Plant response rating, Waterhemp_RES1", "setting": "[1]; Postemergence, 31 g ai/ha", "value": 98}, {"measurement": "Plant response rating, Waterhemp_RES1", "setting": "[1]; Postemergence, 125 g ai/ha", "value": 100}, {"measurement": "Plant response rating, Waterhemp_RES1", "setting": "[1]; postemergence, 62 g ai/ha", "value": 90}, {"measurement": "Plant response rating, Waterhemp_RES1", "setting": "[1]; postemergence, 8 g ai/ha", "value": 85}]}, {"smiles": "CCc1cc(C(=O)NCC(F)(F)F)nn1Cc1ccnc(Br)c1", "note": "[Compound 224]", "values": [{"measurement": "Plant response rating, Cocklebur", "setting": "cocklebur; 62 g ai/ha", "value": 0}, {"measurement": "Plant response rating, Cocklebur", "setting": "cocklebur; 125 g ai/ha", "value": 0}]}]}
